Experimental data from US6734177B2, “Certain salts of discodermolide acid, pharmaceutical compositions containing them and their use in treating tumors” (Novartis AG, priority 2001, dated 2004).

Columns and labels:
Experiment in all cases: Hollow fiber in vivo tumor cell cultivation model in athymic nude mice
Set-up in all cases: species or system human
1A9 ovarian carcinoma = tested on: 1A9 ovarian carcinoma
From the text: (§1) Utilizing this model, one can measure the ability of test compounds to inhibit the growth of human tumor cells in hollow fibers growing subcutaneously (s.c.) in athymic nude mice. The histologic tumor types employed were MIP 101 colon carcinoma, HCT-116 colon carcinoma, 1A9PTX22 ovarian carcinoma, and 1A9 ovarian carcinoma.
(§2) The HCT 116 human colon tumor cell line was obtained from the American Type Culture Collection, Rockville, Md. The MIP 101 human colon tumor cell line was obtained from Dr. Robert Kramer (Bristol Meyers Squibb) and was previously described (Niles R M, Wilhelm S A, Steele G D JR, Burke B, Christensen T, Dexter D, O'Brien M J, Thomas P, Zamcheck N. Isolation and characterization of an undifferentiated human colon carcinoma cell line (MIP-101). Cancer Invest. 1987;5(6):545-52.). The 1A9 and the 1A9PTX22 ovarian tumor cell lines were obtained from Dr. Toto Fojo, Medicine Branch, Division of Clinical Sciences, National Cancer Institute, National Institutes of Health, Bethesda, Md. 20892. The 1A9 is a clone of the ovarian carcinoma cell line, A2780 (Balachandran R, ter Haar E, Welsh M J, Grant S G, Day B W. The potent microtubule-stabilizing agent (+)-discodermolide induces apoptosis in human breast carcinoma cells-preliminary comparisons to paclitaxel. Anti-Cancer Drugs 1998; 9:67-76. [Errata: Anti-Cancer Drugs 1998: 9:369-370]). The 1A9PTX22 subline was isolated as an individual clone from the 1A9 cell line in a single step selection by exposure to 5 ng/mL paclitaxel in the presence of 5 μg/mL of verapamil. […] Resistance to paclitaxel was maintained after two years of culturing in drug-free media, and was attributed to the Ala^364→Thr mutation in β-tubulin that was found in the 1A9PTX22 cell line. All cell lines were propagated and expanded in RPMI 1640 medium containing 10% heat-inactivated FBS (Life Technologies, Grand Island, N.Y.) in a tissue culture incubator (37° C., controlled, humidified atmosphere containing 5% CO2). Cell expansions were performed in T75 tissue culture flasks (Costar®, Corning, N.Y.). For hollow fiber preparations, cells were harvested at 70-90% confluency using 0.25% Trypsin-EDTA (Life Technologies, Grand Island, N.Y.).
(§3) PVDF hollow fibers (Spectrum, Gardena, Calif.) were soaked in 70% EtOH for 72 hours before use. After this step, all handling of fibers was done under a biological laminar flow hood using aseptic procedures. Individual fibers were flushed with 3 mL of ice-cold tissue culture media using a syringe equipped with a 20-gauge needle. Next, each fiber was filled with an appropriate cell suspension (1×10^6 cells/mL for the 1A9 and 1A9PTX22 cells, and 0.3×10^6 cells/mL for the HCT 116 and MIP 101 cells), and both ends of the fiber were sealed with a hot flat needle holder. The entire length of the fiber was then sealed into 1.5 cm microcapsules (further called “hollow fibers”), each containing approximately 15 μL of the appropriate cell suspension. After separation, individual hollow fibers were placed in 6 well plates (6 fibers in 5 mL media per well), and were incubated overnight at 37° C. in the tissue culture incubator.
(§4) Outbred athymic (nu/nu) female mice (“Chrls:Athymic Nude-nu”, Charles River Laboratories, Wilmington, Mass.) were anesthetized with ip injections of Ketamine/Xylazine (150 mg/kg, and 12 mg/kg body weight, respectively). For the subcutaneous implantation an 11-gauge trocar containing one or two hollow fibers was inserted through an incision made with scissors at the nape of the neck of an animal, and fibers were released by retracting the trocar while depressing the plunger. This procedure was repeated until all four hollow fibers were implanted. One wound clip was used to close the skin incision. After the surgery each animal received a single, subcutaneous injection of 0.4 mg/kg butorphenol to relieve any potential pain. Animals recovered from the anesthesia on a heating pad, before returning to their cages. […]

[1] = tested on: 1A9PTX22 ovarian carcinoma; details: for Experiment #1 % T/C ± SEM / Experiment #2 % T/C ± SEM: 1A9PTX22 hollow fibers s.c., day 7, Paclitaxel 15 mg/kg i.v. daily for 5 days, Ex. 1 45 mg/kg i.v. once; for Average % T/C: 1A9PTX22 hollow fibers, average of experiments #1 and #2
From the text: as §1, §2, §3, §4

HCT-116 colon carcinoma = details: for Experiment #1 % T/C ± SEM / Experiment #2 % T/C ± SEM: HCT 116 hollow fibers s.c., day 7, Paclitaxel 15 mg/kg i.v. daily for 5 days, Ex. 1 45 mg/kg i.v. once; for Average % T/C: HCT 116 hollow fibers, average of experiments #1 and #2
From the text: as §1, §2, §3, §4

MIP 101 colon carcinoma = details: for Experiment #1 % T/C ± SEM / Experiment #2 % T/C ± SEM: MIP 101 hollow fibers s.c., day 7, Paclitaxel 15 mg/kg i.v. daily for 5 days, Ex. 1 45 mg/kg i.v. once; for Average % T/C: MIP 101 hollow fibers, average of experiments #1 and #2
From the text: as §1, §2, §3, §4

[2] = 1A9 hollow fibers s.c., day 7, Paclitaxel 15 mg/kg i.v. daily for 5 days, Ex. 1 45 mg/kg i.v. once
[3] = 1A9 hollow fibers, average of experiments #1 and #2

Structure (SMILES)	Experiment #2 % T/C ± SEM (1A9 ovarian carcinoma; 1A9 hollow fibers s.c., day 7, Ex. 1 45 mg/kg i.v. once)	Experiment #1 % T/C ± SEM (1A9 ovarian carcinoma; [2])	Average % T/C (1A9 ovarian carcinoma; [3])	Experiment #1 % T/C ± SEM [1]	Experiment #2 % T/C ± SEM [1]	Average % T/C [1]	Experiment #1 % T/C ± SEM (HCT-116 colon carcinoma)	Experiment #2 % T/C ± SEM (HCT-116 colon carcinoma)	Average % T/C (HCT-116 colon carcinoma)	Experiment #1 % T/C ± SEM (MIP 101 colon carcinoma)	Experiment #2 % T/C ± SEM (MIP 101 colon carcinoma)	Average % T/C (MIP 101 colon carcinoma)	Experiment #2 regression (Reg.) (1A9 ovarian carcinoma; 1A9 hollow fibers s.c., day 7, Paclitaxel 15 mg/kg i.v. daily for 5 days, regression = (1−Mean T/Mean T0)×100%)	Average regression (Reg.) (1A9 ovarian carcinoma; [3])
C=C/C=C\[C@H](C)[C@H](OC(N)=O)[C@@H](C)[C@@H](O)[C@@H](C)C/C(C)=C\[C@H](C)[C@@H](O)[C@@H](C)/C=C\[C@@H](O)C[C@H](O)[C@H](C)[C@H](O)[C@@H](C)C(=O)[O-].[Na+] [Ex. 1, (2R,3S,4S,5S,7S,8Z,10S,11S,12S,13Z,16S,17S,18S,19S,20S,21Z)-19-[(aminocarbonyl)oxy]-3,5,7,11,17-pentahydroxy-2,4,10,12,14,16,18,20-octamethyl-8,13,21,23-tetracosatetraenoic acid, sodium salt]	23 ± 8 %	14 ± 4 %	19%	6 ± 2 %	16 ± 7 %	11%	15 ± 4 %	10 ± 3 %	13%	50 ± 9 %	90 ± 9%	70%		
CC(=O)O[C@H]1C(=O)[C@@]2(C)[C@H]([C@H](OC(=O)c3ccccc3)[C@]3(O)C[C@H](OC(=O)[C@H](O)[C@@H](NC(=O)c4ccccc4)c4ccccc4)C(C)=C1C3(C)C)[C@]1(OC(C)=O)CO[C@@H]1C[C@@H]2O [paclitaxel]		1 ± 3 %		109 ± 16%	84 ± 8%	97%	2 ± 1 %	1 ± 2 %	1%	113 ± 10%	112 ± 11%	113%	53% Reg.**	26% Reg.
